Legend:
[1] = target: human, recombinant full-length HDAC6 (Homo sapiens (Human), UniProt Q9UBN7); assay: HDAC inhibition assay (Reaction Biology), HDAC6; format: biochemical
[2] = tested on: B16 murine melanoma cells; assay: B16 melanoma cell growth inhibition MTS assay; format: cell-based; details: for GI50: Mus musculus, B16 murine melanoma cells; for GI50 / growth inhibition of B16 melanoma cells (in words): 48 h, MTS
Experimental: B16 murine melanoma cells were plated at 5×10^3/well in 96 well flat bottom plates. The following day, media was changed to that containing various concentrations of HDACi or matched DMSO vehicle concentrations diluted in complete medium done in triplicate. Cells were incubated for 48 hours at 37° C. and 5% CO2. […] Briefly, 20 μL of reagent were added per well and incubated at 37° C. for 3 hours. […] All values were then normalized and expressed as a percentage of medium control (100%).

B16 melanoma = assay: In vivo B16 melanoma tumor growth in C57BL/6 mice; details: 25 mg/kg, intraperitoneal, three times weekly, B16 subcutaneous
[3] = tested on: melanoma antigens gp100, MART1, TYRP1 and TYRP2 in human melanoma cell lines; assay: Tumor antigen expression by qRT-PCR; format: cell-based; details: 48 hours
Experimental: (D) Expression of tumor antigens was measured in human WM164 non-target and HDAC6KD cells. (E) Expression of tumor antigens mart-1 and gp-100 was measured by western blot.
In addition to direct cytotoxicity, pan-HDACi have immunologic effects on melanoma including modulation of MHC, co-stimulatory molecules, and cytokine production. In both human and murine melanoma cell lines, genetic (FIG. 43A) and pharmacologic (FIG. 43B) disruption of HDAC6 led to increased surface expression of MHC I by flow cytometry.

[4] = tested on: acetyl-tubulin and acetyl-histone3 in human melanoma cell lines; assay: Western blot of HDAC substrate acetylation in human melanoma cells; format: cell-based; details: 24 hrs
Experimental: Error bars represent standard deviation from triplicates. This figure is representative of three independent experiments. (F,G,H) Cell cycle analysis of melanoma WM164, WM983A and WM793 human melanoma cell lines stained with propidium iodide. Data is representative of three experiments with similar results.
To confirm the selectivity of isotype specific HDACi, Western blot analysis was performed on the acetylation status of known HDAC substrates including histone H3 and H4, which are known Class I HDAC targets, and α-tubulin, a target for HDAC6. The doses required to impart the anti-proliferative effect coincided with that needed to increase acetylation of the respective HDAC substrates (FIG. 41F-41H). […] Conversely, HDAC6 selective inhibitors (HDAC6i) increase α-tubulin acetylation but not histone acetylation (FIG. 41F).

[5] = tested on: acetyl-α-tubulin and acetyl-H3 in B16 melanoma cells; assay: Tubulin and histone acetylation Western blot assay; format: cell-based, murine; details: low nanomolar treatment, 24 h
Experimental: […]. B16 melanoma cells were plated at 10^5 cells/well in 12 well plates and allowed to adhere overnight. A 50 mM stock of compound was then added by serial dilutions in complete medium to the indicated concentrations. Cells were incubated for 24 h under humidified conditions (37° C., 5% CO2). Wells were then washed with cold PBS, and cells were lysed in a buffer containing 10 mM Tris-HCl pH 8.0, 10% SDS, […], 100 mM DTT, and 1× protease inhibitor (Roche). Cells were lysed for 30 min on ice and then sonicated for 8 min (8 cycles of 30 s on/30 s rest). Cells were then boiled for 10 min with 6× gel loading buffer and resolved on 4-15% gradient gels and subsequently transferred onto nitrocellulose membranes. Membranes were blocked with 5% milk in PBS-T and detection of specific antigens using antibodies against acetyl-H3 and H3 (Cell Signaling), and acetyl-α-tubulin and α-tubulin (Sigma). Bands were detected by scanning blots with LI-COR Odyssey imaging system using both 700 and 800 channels.

[6] = tested on: IL-10 production in murine peritoneal elicited primary macrophages (PEM); assay: IL-10 production ELISA, PEM; format: cell-based; details: 24 hrs
Experimental: (§1) Murine peritoneal elicited primary macrophages (PEM)(A) and murine RAW264.7 (B) cells were incubated with JB7-19, JB7-22, JB720 at the concentration indicated on each chart. After 24 hrs, the production of IL-10 was measured by ELISA.

murine melanoma B16 = assay: Cell viability CellTiter 96 Aqueous ONE, B16; format: cell-based; details: B16, 24 hrs, compared to DMSO
Experimental: (§2) Human cutaneous T-cell lymphoma (CTCL) HuT-78 (A), murine mantle cell lymphoma (MCL) (B), and murine melanoma B16 (C) and SM1 (D) cells were incubated with JB7-19, JB7-22, JB720 at different concentrations for 24 hrs. Cell viability was measured using CellTiter 96 Aqueous ONE solution (Promega, Madison, Wis.) and compared to DMSO treated control samples. Error bars represent standard deviation from triplicates.

[7] = tested on: murine mantle cell lymphoma (MCL); assay: Cell viability CellTiter 96 Aqueous ONE, MCL; format: cell-based; details: 24 hrs, compared to DMSO
Experimental: as §2

[8] = tested on: IL-10 production in murine RAW264.7 cells; assay: IL-10 production ELISA, RAW264.7; format: cell-based; details: RAW264.7, 24 hrs
Experimental: as §1

[9] = tested on: Human cutaneous T-cell lymphoma (CTCL) HuT-78; assay: Cell viability CellTiter 96 Aqueous ONE, HuT-78; format: cell-based; details: HuT-78, 24 hrs, compared to DMSO
Experimental: as §2

murine melanoma SM1 = assay: Cell viability CellTiter 96 Aqueous ONE, SM1; format: cell-based; details: SM1, 24 hrs, compared to DMSO
Experimental: as §2

[10] = tested on: NRAS and BRAF mutant human melanoma cell lines; assay: Human melanoma cell proliferation MTS assay; format: cell-based; details: 24 h, panel of human melanoma cell lines
Experimental: Cell proliferation was evaluated using various pan- and isotype selective HDACi in a broad panel of human melanoma cell lines. Briefly, cells were plated at 10×10^3/well in a 96 well flat bottom plate. The following day, media was changed to that containing different concentrations of HDACi or matched DMSO vehicle concentrations diluted in complete medium done in triplicate, all with a final concentration of less than 0.1% DMSO. Cells were incubated for 24 hours at 37° C. and 5% CO2. […] All values were then normalized and expressed as a percentage of medium control growth.

[11] = tested on: antigen-specific T-cell responses; assay: In vivo antigen-specific T-cell response to vaccination; set-up: species or system mice; details: in vivo treatment
Text: Tubastatin A-treated macrophages are better activators of […] and restore the responsiveness of anergicT-cells in vitro. […] Mechanistically, Tubastatin-A disrupt […] pathway and tip the balance towards immunogenic rather than tolerogenic macrophages.

STAT3 in APCs = assay: STAT3 phosphorylation and recruitment to IL-10 gene promotor in APCs; format: cell-based
Text: FIG. 26 is a flow chart depicting the experimental design of the in vitro antigen-presenting studies.
Human MCL cells display an enhanced expression of HDAC6. Disruption of HDAC6 in malignant B-cells inhibits their proliferation and is associated with induction of apoptosis. Pharmacologic or genetic disruption of HDAC6 in MCL cells augment their antigen-presenting capabilities leading to better T-cell activation and restoration of function of anergic Tcells in vitro. […] Disclosed herein is the rationale to use HDAC6 specific inhibitor(s) alone or in combination with STAT3 inhibitors in MCL.

Chain of human, recombinant full-length HDAC6 (Q9UBN7 whole entry): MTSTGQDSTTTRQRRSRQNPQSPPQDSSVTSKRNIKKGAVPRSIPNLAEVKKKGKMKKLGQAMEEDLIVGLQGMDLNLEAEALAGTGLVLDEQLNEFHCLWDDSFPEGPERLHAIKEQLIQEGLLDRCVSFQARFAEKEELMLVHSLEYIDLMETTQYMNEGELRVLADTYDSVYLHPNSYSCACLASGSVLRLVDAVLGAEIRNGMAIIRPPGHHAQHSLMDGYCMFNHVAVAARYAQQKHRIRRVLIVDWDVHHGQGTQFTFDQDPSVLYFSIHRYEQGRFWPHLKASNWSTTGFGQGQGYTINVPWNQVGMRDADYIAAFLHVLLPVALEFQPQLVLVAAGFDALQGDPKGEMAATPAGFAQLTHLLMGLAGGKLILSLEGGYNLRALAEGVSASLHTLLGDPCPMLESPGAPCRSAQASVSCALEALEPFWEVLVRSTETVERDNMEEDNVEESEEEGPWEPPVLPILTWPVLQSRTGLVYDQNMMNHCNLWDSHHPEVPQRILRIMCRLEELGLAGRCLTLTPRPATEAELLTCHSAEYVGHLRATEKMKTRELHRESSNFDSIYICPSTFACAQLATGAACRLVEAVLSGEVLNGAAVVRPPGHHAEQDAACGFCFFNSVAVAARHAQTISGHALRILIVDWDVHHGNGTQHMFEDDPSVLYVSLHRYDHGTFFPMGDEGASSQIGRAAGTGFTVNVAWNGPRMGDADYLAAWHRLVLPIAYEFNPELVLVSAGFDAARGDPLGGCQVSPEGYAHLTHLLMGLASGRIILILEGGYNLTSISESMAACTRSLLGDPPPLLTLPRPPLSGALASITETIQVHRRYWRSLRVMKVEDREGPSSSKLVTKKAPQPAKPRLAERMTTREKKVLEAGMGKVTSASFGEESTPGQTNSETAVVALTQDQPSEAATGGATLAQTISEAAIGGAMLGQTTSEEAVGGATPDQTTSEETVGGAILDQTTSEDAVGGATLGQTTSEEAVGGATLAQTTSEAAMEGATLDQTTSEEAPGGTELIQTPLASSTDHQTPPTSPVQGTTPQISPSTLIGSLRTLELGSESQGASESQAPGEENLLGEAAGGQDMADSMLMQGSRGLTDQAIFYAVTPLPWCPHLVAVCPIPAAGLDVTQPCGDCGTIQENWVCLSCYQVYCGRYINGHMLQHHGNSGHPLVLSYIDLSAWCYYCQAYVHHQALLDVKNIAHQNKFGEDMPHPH

## COc1ccccc1NC(=O)NCc1ccc(C(N)=O)cc1 [Compound 1]
[1]; Table 1A
  Fold Selective (HDAC1/HDAC6): 2

## COc1ccccc1NC(=O)N(CCCN(C)C)Cc1ccc(C(=O)NO)cc1 [Compound 5a, 4-((1-(3-(dimethylamino)propyl)-3-(2-methoxyphenyl)ureido)methyl)-N-hydroxybenzamide]
[2]
  GI50: 75.3 ± 1.23 µM

## COc1ccccc1NC(=O)N(CCCO)Cc1ccc(C(=O)NO)cc1 [Compound 5b]
[2]
  growth inhibition of B16 melanoma cells (in words): performed very poorly
  GI50: > 100 µM

## COc1ccccc1NC(=O)N(CCc1c[nH]c2ccccc12)Cc1ccc(C(=O)NO)cc1 [Compound 5c, 4-((1-(2-(1H-indol-3-yl)ethyl)-3-(2-methoxyphenyl)ureido)methyl)-N-hydroxybenzamide]
[2]
  GI50: 30.4 ± 1.32 µM

## COc1ccccc1NC(=O)N(CCc1ccc(O)cc1)Cc1ccc(C(=O)NO)cc1 [Compound 5d, N-hydroxy-4-((1-(4-hydroxyphenethyl)-3-(2-methoxyphenyl)ureido)methyl)-benzamide]
[2]
  GI50: 18.4 ± 1.23 µM

## COCCCN(Cc1ccc(C(=O)NO)cc1)C(=O)Nc1ccccc1 [Compound 5e, N-hydroxy-4-((1-(3-methoxypropyl)-3-phenylureido)methyl)benzamide]
[2]
  GI50: 22.2 ± 1.41 µM

## CCCCN(Cc1ccc(C(=O)NO)cc1)C(=O)Nc1ccccc1 [Compound 5g, 4-((1-butyl-3-phenylureido)methyl)-N-hydroxybenzamide]
B16 melanoma
  tumor growth: delayed tumor growth
[3]
  melanoma antigen expression at the mRNA level: upregulation of melanoma antigens gp100, MART1, TYRP1 and TYRP2
[4]
  acetylation of α-tubulin and histone: increase acetyl-tubulin without modifying the acetylation status of Histone 3
[5]
  acetyl α-tubulin levels: dose-dependant increase
[5]; increase only at 1 and 10 μM
  histone H3 acetylation: without a concamanent elevation
[2]
  less potent than LBH589 in inducing murine B16 melanoma cell death: approximately 100 fold
  growth inhibition of B16 melanoma cells (in words): capable of inhibiting the growth

## O=C(NO)c1ccc(CN(CCc2ccccc2)C(=O)Nc2ccccc2)cc1 [Compound 5h, N-hydroxy-4-((1-phenethyl-3-phenylureido)methyl)benzamide]
[2]
  growth inhibition of B16 melanoma cells (in words): capable of inhibiting the growth
  GI50: 15.4 ± 1.2 µM

## CCCCN(C(=O)NCc1ccc(C(=O)NO)cc1)c1ccccc1 [Compound 8a, 4-((3-butyl-3-phenylureido)methyl)-N-hydroxybenzamide]
[2]
  GI50: 65.8 ± 1.19 µM

## COCCCN(C(=O)NCc1ccc(C(=O)NO)cc1)c1ccccc1 [Compound 8b, N-hydroxy-4-((3-(3-methoxypropyl)-3-phenylureido)methyl)benzamide]
[2]
  GI50: > 100 µM

## CCN(C(=O)NCc1ccc(C(=O)NO)cc1)c1ccccc1 [Compound 8c, 4-((3-ethyl-3-phenylureido)methyl)-N-hydroxybenzamide]
[2]
  GI50: > 100 µM

## COc1ccccc1N1C(=O)N(Cc2ccc(C(=O)NO)cc2)C(C)(C)C1=O [Compound 10a]
[1]; Table 2, cyclic urea compounds
  Fold Selective (HDAC1/HDAC6): 386

## CC(C)[C@@H]1C(=O)N(c2ccccc2)C(=O)N1Cc1ccc(C(=O)NO)cc1 [Compound 10b]
[1]; Table 2, cyclic urea compounds
  Fold Selective (HDAC1/HDAC6): 531

## O=C(NO)c1ccc(CN2C(=O)N[C@@H](Cc3ccccc3)C2=O)cc1 [Compound 11a]
[1]; Table 2, cyclic urea compounds
  Fold Selective (HDAC1/HDAC6): 295

## CCCCN(Cc1ccc(C(=O)NO)cc1)C(=O)Nc1ncccn1 [JB6-22, 4-((1-butyl-3-(pyrimidin-2-yl)ureido)methyl)-N-hydroxybenzamide]
[6]
  IL-10 production: inhibit IL-10 production
Murine melanoma B16
  cell proliferation / viability: decrease cell proliferation
[7]
  cell proliferation / viability: decrease cell proliferation
[8]
  IL-10 production: inhibit IL-10 production
[4]
  acetylation of α-tubulin and histone: increase acetyl-tubulin without modifying the acetylation status of Histone 3
[9]
  cell proliferation / viability: decrease cell proliferation
Murine melanoma SM1
  cell proliferation / viability: decrease cell proliferation

## CCCCN(Cc1ccc(C(=O)NO)cc1)C(=O)Nc1ccc2cn[nH]c2c1 [JB7-19, 4-((1-butyl-3-(1H-indazol-6-yl)ureido)methyl)-N-hydroxybenzamide]
[6]
  IL-10 production: inhibit IL-10 production
Murine melanoma B16
  cell proliferation / viability: decrease cell proliferation
[7]
  cell proliferation / viability: decrease cell proliferation
[8]
  IL-10 production: inhibit IL-10 production
[4]
  acetylation of α-tubulin and histone: increase acetyl-tubulin without modifying the acetylation status of Histone 3
[9]
  cell proliferation / viability: decrease cell proliferation
Murine melanoma SM1
  cell proliferation / viability: decrease cell proliferation

## Cc1[nH]c2ccccc2c1CCNCc1ccc(/C=C/C(=O)NO)cc1 [LBH589, reference compound]
[10]; read-out: IC50 range, inhibition of proliferation
  IC50: 0.01 to 0.05 µM
[2]
  GI50: 0.15 µM

## CN1CCc2c(c3ccccc3n2Cc2ccc(C(=O)NO)cc2)C1 [Tubastatin A, reference compound]
B16 melanoma
  tumor growth: delayed tumor growth
[3]
  melanoma antigen expression at the mRNA level: upregulation of melanoma antigens gp100, MART1, TYRP1 and TYRP2
[11]
  antigen-specific T-cell responses to vaccination: enhances antigen-specific T-cell responses to vaccination
[10]
  concentration range inhibiting proliferation (in words): low micromolar range
STAT3 in APCs
  STAT3 phosphorylation and recruitment to the IL-10 gene promotor: decreased STAT3 phosphorylation and recruitment to the IL-10 gene promotor
[4]
  acetylation of α-tubulin and histone: increase acetyl-tubulin without modifying the acetylation status of Histone 3
[2]
  GI50: 40.5 ± 1.21 µM

## Trichostatin A [TSA]
[10]
  concentration range inhibiting proliferation (in words): low 100 nM range

From patent US10227295B2, “Selective histone deactylase 6 inhibitors” (H. LEE MOFFITT CANCER CENTER AND RESEARCH INSTITUTE, INC., priority 2013, dated 2019)
